From patent publication US20080090900A1, “ANTIBIOTIC BUSHRIN” (University of Karachi, priority 2006, published 2008) come the findings set out here.

Molecules are shown by their SMILES. Converted amounts (≈) assume the structure as drawn. “Also recorded” adds a separate entry of the source. Like-named read-outs stand apart in the source and are kept apart here.

Holding throughout (assay type): cell-based
One test relates to Clostridium perfringens. The experiment in a line: microbe, parasite or virus in culture.
The subject of test [1] is Proteus mirabilis.
The subject of test [2] is Staphylococcus aureus. The experiment in a line: Bacteriolytic assay. Particulars: 600 nm, 30° C., 0-360 min, various concentrations. As for the experimental part: The seed culture of Staphylococcus aureus in Luria broth (LB) were washed twice with sterile distilled water containing 0.9% sodium chloride and the absorbance was adjusted to 0.05 at 600 nm. The bacterial cell suspension was divided into aliquots of 5 ml each placed in sterile test tube and exposed to Compound 1 at various concentration, untreated bacterial suspension were used as the negative control.

The test system of a further test is Enterobacter faecalis. The experiment in a line: disc diffusion technique. (In general: A growth-free zone around the sample is the usual read-out of agar diffusion tests.)
Test [3] deals with Vibrio cholera. Put plainly: disc diffusion technique.
Test [4] relates to Proteus mirabilis. The experiment in a line: disc diffusion technique.
A further test relates to Proteus morgani.
Test [5] deals with Staphylococcus epidermidis.
Test [6] deals with Staphylococcus aureus. Put plainly: Spheroplasting activities. As for the experimental part:
Aliquots (100 μl) of an exponential phase culture(A600,0.05) grown in Luria broth supplemented with 0.3M concentration of sucrose were dispensed into test tubes containing different concentration of Compound 1 and 1 μl/ml ampicillin as positive control. The tubes were then incubated at 30° C. with shaking at 140 rpm. After 90 minutes, the cells were examined by phase contrast microscope for any morphological changes or for the presence of spheroplast. To confirm the osmotic fragility of the spheroplast the lytic effect of 2-3 μl of water added under the cover slip was tested.

In test [7] the test system is Staphylococcus aureus.
In another test the test system is Streptococcus sp.
Another test relates to Candida albicans. Particulars: MIC determination.
The test system of test [8] is Bacillus steriothermophilus. The experiment in a line: disc diffusion technique. Particulars: 150 μg disc, read-out: Sensitivity (width of inhibition zone).
For another test, the system named is Enterococcus faecium. The experiment in a line: disc diffusion technique. Particulars: 150 μg disc, read-out: Sensitivity (width of inhibition zone).
The test system of the next test is Streptococcus group G. The experiment in a line: disc diffusion technique. Particulars: 150 μg disc.
For test [9], the system named is Staphylococcus epidermidis. The experiment in a line: disc diffusion technique.
For test [10], the system named is Vibrio cholera. Particulars: Vibrio cholerae.

On to `Cc1cc(O)c2c(c1)C=CC(C)(c1ccoc1)C2` (stereo not drawn) [Compound 1, 7-(3-furyl)-3,7-dimethyl-7,8-dihydro-1-naphthalenol], for which the zone of inhibition at 150 µg/disc in the test on Clostridium perfringens (Clostridium perfringens, read-out: Sensitivity (width of inhibition zone)) was in the range of 10 to 15 mm; in the test with Proteus mirabilis [4] (150 μg disc, read-out: Sensitivity (width of inhibition zone)) it was 18 to 30 mm; in test [8], 18 to 30 mm; with Enterococcus faecium, 18 to 30 mm; in test [9] (150 μg disc, Staphylococcus epidermidis, read-out: Sensitivity (width of inhibition zone)), 18 to 30 mm. Further, the “antibacterial activity” value in the test with Clostridium perfringens (disc diffusion, anaerobic Clostridium perfringens) was “less active”; in the test on Enterobacter faecalis, “active; also recorded: activity”; in the test on Vibrio cholera [3], “active; also recorded: activity”; in the test on Proteus mirabilis [4] it was “active; also recorded: activity”; in test [9] (Staphylococcus epidermids), “active; also recorded: activity”. For the same compound, the MIC in the test with Proteus mirabilis [1] was 75 µg/mL (≈ 312 µM); in the test on Proteus mirabilis [1] (Proteus mirabilis, read-out: MIC) it was 75 µg/mL (≈ 312 µM); in the test on Proteus morgani, 75 µg/mL (≈ 312 µM); in test [5], 50 to 100 µg/mL; in [5] (Staphylococcus epidermidis, read-out: MIC), 50 µg/mL (≈ 208 µM); with Staphylococcus aureus [7] (Staphylococcus aureus), 50 to 100 µg/mL (≈ 208 to 416 µM). The MIC with Staphylococcus aureus [7] (Staphylococcus aureus (ATCC33591), stated in time kill experiment, read-out: MIC) was found to be 50 µg/mL (≈ 208 µM); with Streptococcus sp, 200 µg/mL (≈ 832 µM); with Vibrio cholera [10], 60 µg/mL (≈ 250 µM). The “absorbance of Staphylococcus aureus cell suspension (lysis)” value in the test on Staphylococcus aureus [2] was “Reduction of the absorbance”. In the test with Staphylococcus aureus [6] (Luria broth with 0.3M sucrose, 90 minutes, phase contrast microscope), the “formation of osmotically fragile spheroplasts” value is “did not induce”. Besides, the “killing of cells in osmotically protected medium” value in the test with Staphylococcus aureus [6] (Staphylococcus aureus) is given as “killed”. Moreover, in the test on Candida albicans, the “activity against Candida albicans” value is on record as “not found active”. For the same compound, in the test with Streptococcus group G, the “Sensitivity (width of inhibition zone)” value is recorded as “−”.

Broadly, the zone of inhibition is the extent of the growth-free halo in a diffusion test. One may read the MIC as the smallest concentration in the dilution series that meets the test's criterion for growth inhibition.
